# Measured values taken from patent US6900244B2, “Anilino liver X-receptor modulators” (Pharmacia Corporation, priority 2002, dated 2005).
row,Structure (SMILES),melting point
1,"CON(C)C(=O)CN(C)c1ccc(C(O)(C(F)(F)F)C(F)(F)F)cc1 [Example 32, N˜1˜-Methoxy-N˜1˜N˜2˜-dimethyl-N˜2˜-{4-[2,2,2-trifluoro-1-hydroxy-1-(trifluoromethyl)ethyl]phenyl}glycinamide]",121 °C
2,"CCOC(=O)CN1CCCc2cc(C(O)(C(F)(F)F)C(F)(F)F)ccc21 [Example 31, Ethyl [6-[2,2,2-trifluoro-1-hydroxy-1-(trifluoromethyl)ethyl]-3,4-dihydroquinolin-1(2H)-yl]acetate]",66.5 °C
3,CN(CC(=O)N1CCOCC1)c1ccc(C(O)(C(F)(F)F)C(F)(F)F)cc1 [Example 38],149 °C
4,"CCOC(=O)CN(Cc1ccccc1)c1ccc(C(O)(C(F)(F)F)C(F)(F)F)cc1 [Example 19, Ethyl N-benzyl-N-{4-[2,2,2-trifluoro-1-hydroxy-1-(trifluoromethyl)ethyl]-phenyl}glycinate]",116 °C
5,"CCOC(=O)CN(Cc1ccc(Cl)cc1Cl)c1ccc(C(O)(C(F)(F)F)C(F)(F)F)cc1 [Example 40, Ethyl N-(2,4-dichlorobenzyl)-N-{4-[2,2,2-trifluoro-1-hydroxy-1-(trifluoromethyl)ethyl]phenyl}glycinate]",111 °C
6,"CN(CC(=O)OCc1ccc(Cl)cc1)c1ccc(C(O)(C(F)(F)F)C(F)(F)F)cc1 [Example 35, 4-Chlorobenzyl N-methyl-N-{4-[2,2,2-trifluoro-1-hydroxy-1-(trifluoromethyl)-ethyl]phenyl}glycinate]",66.5 °C
7,"CCOC(=O)CN(Cc1ccccc1Cl)c1ccc(C(O)(C(F)(F)F)C(F)(F)F)cc1 [Example 21, Ethyl N-(2-chlorobenzyl)-N-{4-[2,2,2-trifluoro-1-hydroxy-1-(trifluoromethyl)ethyl]phenyl}glycinate]",146 °C
8,CN(CC(=O)N1CCCC1)c1ccc(C(O)(C(F)(F)F)C(F)(F)F)cc1 [Example 39],184 °C
9,"CCOC(=O)CN(Cc1ccc(OC)cc1)c1ccc(C(O)(C(F)(F)F)C(F)(F)F)cc1 [Example 43, Ethyl N-(4-methoxybenzyl)-N-{4-[2,2,2-trifluoro-1-hydroxy-1-(trifluoromethyl)ethyl]phenyl}glycinate]",68 °C
10,"CCOC(=O)CN(Cc1cccnc1)c1ccc(C(O)(C(F)(F)F)C(F)(F)F)cc1 [Example 22, Ethyl N-(pyridin-3-ylmethyl)-N-{4-[2,2,2-trifluoro-1-hydroxy-1-(trifluoromethyl)ethyl]phenyl}glycinate]",55 °C
11,"CCOC(=O)CN(Cc1cccc(Cl)c1)c1ccc(C(O)(C(F)(F)F)C(F)(F)F)cc1 [Example 41, Ethyl N-(3-chlorobenzyl)-N-{4-[2,2,2-trifluoro-1-hydroxy-1-(trifluoromethyl)ethyl]phenyl}glycinate]",81.5 °C

# Further lines, results first:
row,melting point,Structure (SMILES)
1,107 °C,"CCOC(=O)C1(Nc2ccc(C(O)(C(F)(F)F)C(F)(F)F)cc2)CCC(C(C)(C)C)CC1 (centres unmarked) [Example 49, Ethyl 4-tert-butyl-1-({4-[2,2,2-trifluoro-1-hydroxy-1-(trifluoromethyl)ethyl]phenyl}amino)cyclohexanecarboxylate]"
2,77 °C,"CCOC(=O)CCN(C)c1ccc(C(O)(C(F)(F)F)C(F)(F)F)cc1 [Example 14, Ethyl N-methyl-N-{4-[2,2,2-trifluoro-1-hydroxy-1-(trifluoromethyl)ethyl]phenyl}-beta-alaninate]"
3,142.6 °C,"CCOC(=O)C1(Nc2ccc(C(O)(C(F)(F)F)C(F)(F)F)cc2)CCC(C)CC1 (centres unmarked) [Example 50, Ehyl 4-methyl-1-({4-[2,2,2-trifluoro-1-hydroxy-1-(trifluoromethyl)ethyl]phenyl}amino)cyclohexanecarboxylate]"
4,67 °C,"CCOC(=O)CN(CC(F)(F)F)c1ccc(C(O)(C(F)(F)F)C(F)(F)F)cc1 [Example 5, Ethyl N-(2,2,2-trifluoroethyl)-N-{4-[2,2,2-trifluoro-1-hydroxy-1-(trifluoromethyl)-ethyl]phenyl}glycinate]"
5,103 °C,"CCOC(=O)CC(C)Nc1ccc(C(O)(C(F)(F)F)C(F)(F)F)cc1 (centres unmarked) [Example 1, Ethyl 3-({4-[2,2,2-trifluoro-1-hydroxy-1-(trifluoromethyl)ethyl]phenyl}amino)-butanoate]"
6,93 °C,"CCOC(=O)C(C)(C)Nc1ccc(C(O)(C(F)(F)F)C(F)(F)F)cc1 [Example 3, Ethyl 2-methyl-N-{4-[2,2,2-trifluoro-1-hydroxy-1-(trifluoromethyl)ethyl]phenyl}-alaninate]"
